Source: PubChem BioAssay (NCI)
Where “and” joins values, the source holds several entries; their conditions need not be identical. Equal values may be shown once.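 Each compound was tested at five concentrations against cells in 96-well plates for 48 hours. The concentration for 50% growth inhibition is given as GI50. TGI marks complete inhibition of growth.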 Where a SMILES comes first, the peptide text is derived from it. [ ]: non-standard residue; d: D form. The star is where a group is joined. NMeF = CN[CH](Cc1ccccc1)C(=O)O; NMeV = CN[CH](C(=O)O)C(C)C; Boc = CC(C)(C)OC(=O)*

Key:
Test in all cases: inhibition of tumour cell growth, NCI panel, 48 h
[1] = tested on: DLD-1 colon
[2] = tested on: DMS 273 small cell lung
[3] = tested on: SNB-78 CNS
[4] = tested on: DMS 114 small cell lung
[5] = tested on: M19-MEL melanoma
[6] = tested on: NCI/ADR-RES ovarian
[7] = tested on: MDA-MB-435
[8] = tested on: HS 578T breast
[9] = tested on: BT-549 breast
[10] = tested on: MDA-MB-231 breast

Compound	TGI [1] [µM]	TGI [2] [µM]	TGI [3] [µM]	TGI [4] [µM]	TGI [5] [µM]	TGI [6]	TGI [7] [µM]	TGI [9] [µM]	TGI [10] [µM]	TGI [8] [µM]	also measured
COC(=O)/C(=N\Nc1nnc(C)n1N)C(C#N)c1ccc(Cl)cc1 (configuration not stated)	> 100	> 100	> 100	> 100	> 100						
O=C1CCN2C(=O)CCN12			> 100	> 100	> 100						
NCCCCN(CCCN)/[N+]([O-])=N\O	> 100	> 100	> 100	> 100	> 100						
CC(C)C(Nc1c2ccccc2nc2ccccc12)C(=O)O (configuration not stated)	> 100	> 100			> 100						
CC(=O)[O-].CCN(CC)c1ccc(C=NCCN=Cc2ccc(N(CC)CC)cc2[O-])c([O-])c1.[Mn+3]	> 100	45.8	> 100	35.8	32.4						GI50 [1]: 55.2 µM; GI50 [2]: 22.4 µM; GI50 [3]: 45.1 µM; GI50 [4]: 19.6 µM; GI50 [5]: 17.7 µM
Cn1c(=O)c(C(c2ccc([N+](=O)[O-])cc2)c2c(O)c3ccccc3n(C)c2=O)cc2ccccc21 (configuration not stated)	> 100	> 100	> 100	> 100	> 100						
COc1cc2c(c(OC)c1OC)-c1ccc(OC)c(=O)cc1[C@@H](NC(=O)c1ccccc1)CC2	> 100		38.7	< 0.016	> 100	1.15 µM and 1.05 µM	< 0.003	30	15.7		GI50 [7]: < 0.003 µM; GI50 [8]: < 0.003 µM; GI50 [9]: < 0.003 µM
Cc1cc(S(=O)(=O)Nc2nnc(-c3ccccc3)c(-c3ccccc3)n2)c(SCC(N)=O)cc1Cl						> 100 µM	> 100	90.6	> 100	> 100	GI50 [6]: > 100 µM; GI50 [7]: 51.5 µM; GI50 [8]: 32.5 µM; GI50 [9]: 27.4 µM; GI50 [10]: 36.3 µM
C1=CC2SSSC2C1 (configuration not stated)	> 100	> 100		> 100	> 100						
O=C1OC(c2ccccc2)=N/C1=C\c1cccc2ccccc12	> 100	> 100	> 100	> 100	> 100						
Cc1cccc(NC(=O)C(=O)C(C(=O)c2ccc3ccccc3c2)C2OC(=O)c3ccccc32)c1C (configuration not stated)	28.9	39	> 100	35.2	21.9						
COC1=CC(=O)c2nc(-c3cccc(C)n3)[nH]c2C1=O						> 100 µM	> 100	36.5	66.2	76.7	GI50 [6]: 32.5 µM; GI50 [7]: 35.6 µM; GI50 [8]: 25.3 µM; GI50 [9]: 17.8 µM; GI50 [10]: 27.1 µM
Cc1ccc(C2=C(c3ccccc3)C(Br)(c3ccc(C)cc3)C(c3ccccc3)=C2c2ccc(C)cc2)cc1	> 100	> 100	> 100	> 100	> 100						
CC(C)C(NC(=O)OC(C)(C)C)C(=O)N(C)C(Cc1ccccc1)C(=O)N(C)C(C(=O)O)C(C)C (stereo not drawn) (Boc-Val-[NMeF]-[NMeV]-OH; configuration not given here)		> 100		> 100	> 100						
COc1ccc(Nc2c3ccccc3nc3occc23)cc1						> 36.8 µM		45.8	22.7	> 67.6	GI50 [6]: 0.921 µM; GI50 [7]: 0.171 µM; GI50 [8]: 6.23 µM; GI50 [9]: 18.4 µM; GI50 [10]: 3.66 µM
N#CC(NNC(=O)Cc1ccccc1)c1c(O)ccc2ccccc12 (configuration not stated)	> 100	19.1	72	5.38	16.3	16 µM	84.1	24.7	58.9	50.5	
O=C1OC(C(O)CO)C(=O)C1=O (configuration not stated)						> 10000 µM	4290	> 10000	> 10000	9940	GI50 [6]: 7060 µM; GI50 [7]: 2120 µM; GI50 [8]: 3250 µM; GI50 [9]: 4320 µM; GI50 [10]: 2720 µM
CCOc1ccccc1NC(=O)CC(C(=O)OC)C(=O)C(=O)OC (configuration not stated)		> 100	> 100	> 100	> 100						
CC(=O)CSCc1ccccn1						> 100 µM	> 100	> 100	> 100	7.23	
